From patent US20200164047A1, “THERAPY AND DIAGNOSIS OF DISEASE CHARACTERIZED BY ALTERATIONS IN THE DNA DAMAGE RESPONSE” (UNIVERSITÀ DEGLI STUDI DI MILANO, priority 2017, published 2020)

Legend:
[1] = test system: yeast cells undergoing chronological aging; experiment: Chronological lifespan (CLS) with UV: DDR, NER, viability; format: cell-based, S. cerevisiae; details: UV 40 J/m^2; rapamycin 2 ng/ml or metformin 80 mM
Protocol: Both drugs were supplemented at the initial overnight culture stage (Day 0), prior to cells entering stationary phase. In experiments including rapamycin-treated cultures, DMSO (0.04%) was used in the untreated cultures. For each chronological aging experiment, cells were set up in synthetic complete medium (SDC) and allowed to grow overnight at 28° C. to reach exponentially growing conditions the next day (day 1) until the end of kinetics (day 10/11 for DDR and NER analysis, day 21-28 for viability). At each examined day, small aliquots of cells were removed, exposed to 40 J/m^2 and further incubated in their exhausted medium. Samples were taken at untreated (prior to UV), 0 and 2 hours (for protein extraction) or 0, 6 and 24 hours (for genomic DNA extraction) after UV treatment.
PP2A targets: Gln3-myc, Npr1-myc, Nnk1-myc were all separated on NuPage precast 3-8% SDS gels. PonceauS staining was used as a loading control.
Cells were fixed in one volume of ice-cold 100% ethanol and incubated on ice for 5′. Genomic DNAs were then prepared following standard procedure. Equal amounts of DNA were loaded on 0.8% agarose gel, transferred by Southern blot onto nitrocellulose membrane (Amersham Protran 0.45μ) and cross-linked by baking 1 hour at 80° C.
Lifespan Viability Assays were Carried as Follows: Aliquots of Cells were Removed Throughout the CLS kinetics, serially diluted and spotted on YPD plates. The plates were then exposed to 40 J/m^2 (or 20 J/m^2 in some cases), incubated at 25° C. and scanned after 3 days. In FIGS. 33, 34 and 36 individual spot assay rows were cut out for space reasons, but the compared strains were always from the same plates.

[2] = test system: cancer cells; experiment: Lactate production and glucose consumption of cancer cells; format: cell-based; details: metformin treatment
Protocol: (§1) FIG. 20. […] (F, G) Quantification of oxygen consumption rate normalized by cell numbers of cells cultured in DMEM medium containing the indicated concentrations of glucose for 12 hours (F) or in DMEM medium containing with 2.5 mM glucose for the indicated time points (G).
Lactate production was measured using Lactate Assay Kit (Sigma Aldrich) according to manufacturer's instructions.

[3] = test system: PDX models (patient-derived xenografts) from melanoma patients; experiment: In vivo growth of melanoma PDX models; parameters: species or system mice; details: metformin-intermittent fasting combination
Protocol: CD1 nude mice received single subcutaneous flank injections of 5×10^6 HCT-116 cells or 1×10^5 patient-derived melanoma cells suspended in 200 μl saline. After the tumors were established, mice were randomized in different groups. Mice were kept on the feeding/fasting protocols described. […] Tumor growth was monitored by bi-dimensional measurements using a caliper. Experiments have been done in accordance with the Italian Laws (D.L.vo 116/92 and following additions), which enforces EU 86/609 Directive (Council Directive 86/609/EEC of 24 Nov. 1986 on the approximation of laws, regulations and administrative provisions of the Member States regarding the protection of animals used for experimental and other scientific purposes). Mice have been housed accordingly to the guidelines set out in Commission Recommendation 2007/526/EC—Jun. 18, 2007 on guidelines for the accommodation and care of animals used for experimental and other scientific purposes. Note that nude mice show a strain-specific decline in glucose levels upon fasting, of a higher degree as compared to other commonly used mouse strains (C57B6).

[4] = test system: HCT116 xenograft tumors; experiment: In vivo growth of HCT116 xenograft tumors; parameters: species or system mice
Source text: FIG. 13. […] Error bars indicate SEM.
FIG. 31. […] (B) Immunoblotting analysis of total cell lysates used for immunoprecipitation in (A).

[5] = Blood glucose levels in tumor-bearing mice; details: metformin 200 mg/kg oral gavage
Source text: (B-D) The levels of blood glucose measured at the end of each feeding/fasting cycle in different experimental groups. […] Error bars indicate SEM. (n=5 per group).
To this end, mice bearing HCT116 xenografts were distributed into five groups as schematized in FIG. 13; the first two groups were kept on ad libitum feeding while the three other groups were subjected to 24-hour cycles of feeding-fasting. Fasting in those groups was achieved by complete withdrawal of food while allowing free access to water. […] The first of those three groups (Fed/Fast group) received vehicle every 48h to assess the effect of fasting-feeding cycles alone on tumor growth. […] Tumor growth was monitored in all groups.

[6] = test system: BON-1 neuroendocrine tumor cells; experiment: BON-1 cell viability; format: cell-based; details: metformin with low (2.5 mM) glucose
Source text: FIG. 57. […] The assay as performed as described in the other examples.

[7] = test system: HeLa cells; experiment: HeLa viable cell count with DNA damaging agents (trypan blue); format: cell-based; details: hydroxyurea 10 mM + gemcitabine 10 nM; high (10 mM) or low (2.5 mM) glucose
Protocol: After 24 hrs treatment, cells are allowed to grow for further 24 hrs (replacing the medium with normal medium), before being harvested and counted with trypan blue to measure viable cells.
(§2) HeLa cells were seeded in 6-well plates (200,00 cells/well), and left untreated, or treated with DNA damaging agents (hydroxyurea 10 mM+gemcitabine 10 nM), in high (10 mM) or low (2.5 mM) glucose, and treated with perphenazine (PPZ) as indicated. After 24 hrs treatment, cells are allowed to grow for further 24 hrs (replacing the medium with normal medium), before being harvested and counted with trypan blue to measure viable cells.
as §2, with “FTY-720 (FTY)” for “perphenazine (PPZ)”
as §2, with “Ceramide” for “perphenazine (PPZ)”
Cells were harvested by trypsinization, washed in PBS (pH 7.2), and then stained with trypan blue solution 04% v/v (Sigma Aldrich) added immediately prior to analysis. Cells ware then counted on a TC30 automated cell counter (Biorad).

[8] = test system: cancer cell lines representative of different cancer types; experiment: Proliferation of cancer cell lines by CellTiter-Glo assay; format: cell-based; details: nutrient-rich conditions
Protocol: as §1
CellTiter Glo Luminescent Cell Viability Assay (Promega) was used according to manufacturer's protocol. Briefly, cells were plated in 96 well plates, treated 24h later with different doses of drugs in total volume of 100 μl. 24h later, 100 μl of CellTiter Glo reagent was added to the cells and incubated for 15 min at 37° C. and luminescence was measured using a Promega plate reader.

In the case of CN(C)C(=N)NC(=N)N.Cl [metformin], the “DDR, NER and lifespan during chronological aging” value [1] is reported as “improve DDR and promote longevity but not NER”, the “glucose consumption and lactate production” value [2] is reported as “dose and time-dependent increase in glucose consumption and lactate production” and the “tumor growth in PDX models” value [3] is reported as “also works on PDX models of tumor”. For the same compound, the tumor growth ([4]; metformin 200 mg/kg every 48 h during fasting cycles (Met/Fast)) was “dramatically impeded”, the tumor growth ([4]; metformin alone, ad libitum feeding, 200 mg/kg oral gavage) was “did not exert any significant tumor restraining effect” and the blood glucose levels [5] was “reduced blood glucose levels but to a much less extent than that induced by fasting”. The cell viability [6] was “reduction in cell viability”, the “cooperation with DNA damaging agents (viable cells)” value [7] was “potentiates the effect of DNA damaging agents in low glucose” and the anti-proliferative effect [8] was “only weak anti-proliferative effects”.
